The record followed here is US9585875B2, “TRPM8 antagonists” (Dompé S.P.A., priority 2011, dated 2017).

The target of data set [1] is T1, TRPM8 (Homo sapiens, UniProt Q7Z2W7). The data set is described as follows: HTS cell-based Ca2+ mobilization assay (FLIPR TETRA) in HEK293/hTRPM8 cells, agonist Cooling Agent 10. Set-up: expressed in transfected cells. Conditions: HEK293/hTRPM8, Cooling Agent 10 at EC80. An excerpt:
A functional cell-based assay for the identification of TRPM8 receptor antagonists, optimised to allow high throughput screening at FLIPR^TETRA, was developed in HEK293 cells by stable pure clone selection and functional characterization with a fluorescent calcium sensitive dye.
TRPM8 was cloned into the multiple cloning site of pcDNA3 mammalian expression vector; the obtained construct pcDNA3/hTRPM8 was fully sequence verified and used for the transfection of HEK293 cell line. HEK293 cells stably transfected with TRPM8 gene were maintained in Minimum essential medium. The cells were transfected with the pcDNA3/hTRPM8 vector by electroporation and then selected with medium containing 0.8 mg/ml G418 for 10-15 days.
The following commercial compounds were used as ligands:
Activator: Cooling Agent 10 (Takasago CAS N. 87061-04-9)
Blocker: Capsazepine (SIGMA cat #D_5879)
The experimental activities were performed using FLIPR^TETRA instruments.
HEK293 cells stably transfected with TRPM8 gene were maintained in Minimum essential medium.
The TRPM8 cell line was analysed for the response to a library of compounds using a Ca^2+ mobilization-dependent fluorescence signal in 384 wells microtiter plate format. The analysis was performed using the FLIPR^TETRA (MDC) with the ICCD Camera.
The execution of the assay involved the use of three microtiter plates:
1. Assay plate, containing cells loaded with dye and prepared as follows:
Cells were seeded at 15000 c/well in Poly-D-Lysine coated 384 wells Microtiter Plates in complete medium (25 μl/well).
24 h after seeding, the cell plates were washed with Tyrode assay buffer by the Microplate Washer and 10 μL of Tyrode assay buffer was left in each well.
Cells were then loaded with 10 μL/well of the Fluo-4 NW dye solution by CyBi®-Well pipettor. Each bottle of Fluo4-NW dye (Molecular Probes cat. #F36206, component A) was re-suspended in 8 mL of Tyrode assay buffer and supplemented with 100 μL of water-soluble probenecid (MolecularProbes cat.#F36206, component B).
Dye loaded cell plates were incubated for 1 h at room temperature.
2. Compound Dilution Plate (FIG. 1), containing diluted test compounds, formulated as follows: […]
Column 1: wells containing Assay Buffer plus DMSO 0.5% final
Columns 3-22: wells containing Assay Buffer plus 0.5% DMSO final. To these wells the compounds to be tested were added at 3× concentration.
Column 23: alternating wells of Max Signal Control in second injection (Assay buffer) and Min Signal Control in second injection (Antagonist Capsazepine IC100, 50 μM) in Assay buffer plus 0.5% DMSO final;
Column 24: wells containing Capsazepine (Antagonist) at 8 concentrations in duplicate at final concentrations of 50 μM, 25 μM, 6.25 μM, 3.15 μM, 1.56 μM, 780 nM, […] in Assay buffer plus 0.5% DMSO final.
3. Activator Plate (FIG. 2), containing agonist Cooling Agent 10 at EC80, formulated as follows:
Column 1: Cooling Agent 10 (Agonist) at 8 concentrations dose response in duplicate at final concentrations of 100 μM, 31.6 μM, 10 μM, 3.16 μM, 1 μM, 316 nM, 100 nM, 31.6 nM in Assay buffer;
Columns 2-24: Cooling Agent 10 (Agonist) at EC80 (3 fold concentrated, 20 μM final) in Assay buffer.
The test was carried out according to a procedure comprising the following steps:
1. The samples contained in the wells of the Compound Plate were added to the corresponding wells of the Assay Plate by the FLIPR^TETRA, thus resulting in the addition in Columns 3-22 of the test compounds at 3× concentration to the cells of the assay plates. No mixing was performed in the assay wells and the signal of the emitted fluorescence was recorded for 300 seconds. 2. The samples contained in the wells of the Activator Plate were added to the corresponding wells of the Assay Plate by the FLIPR^TETRA, thus resulting in the addition in Columns 3-22 of the Assay Plate of the agonist compound in addition to the test compounds. The signal of the emitted fluorescence was recorded for 180 seconds.
Background: Calcium assays in cells follow changes in intracellular calcium, usually with a dye or a luminescent sensor.

For data set [2], the system named is Male Wistar rats. The data set is described as follows: Chronic constriction injury model, mechanical allodynia (Dynamic Plantar Aesthesiometer). The data set is classed as in vivo, rat. How it is done: (§1) Male Wistar rats (220-250 g, Harlan Italy) were used (n=60). Animals were housed in a room with controlled temperature (22±1° C.), humidity (60±10%) and light (12 h per day) for at least a week before being used. Rats were randomly divided into sham, control and treatment groups; ten animals per group were used. All animal experiments were complied with the Italian (D.L. no.116 of Jan. 27, 1992) and associated guidelines in the European Communities Council (Directive of Nov. 24, 1986, 86/609/ECC).
(§2) Antiallodynic effects were assessed at 1 and 3 h post dose. Control animals received vehicle alone (0.5 ml/iv/rat; 10% solutol-NMP and 90% PBS).
(§3) Neuropathic pain behavior was induced by ligation of the sciatic nerve according to the method described by Bennett and Xie [Bennett G. J. and Xie Y. K. A peripheral mononeuropathy in rat that produces disorders of pain sensation like those seen in man, Pain, (1988) 33:87-107]. Briefly, rats were anaesthetized (100 mg/kg ketamine and 10 mg/kg xylazine i.p.) and the left sciatic nerve was exposed at the level of the thigh by blunt dissection through the biceps femoris. Proximal to the sciatic's trifurcation, about 12 mm of nerve was freed of adhering tissue and four ligatures were loosely tied around it with about 1 mm spacing so that the epineural circulation was preserved. The length of nerve thus affected was 6-8 mm long. The animals were allowed to recover and used the day after the surgery. Sham animals represent rats operated but not ligated.
To assess for changes in sensation or in the development of mechanical allodynia, sensitivity to tactile stimulation was measured using the Dynamic Plantar Aesthesiometer (DPA, Ugo Basile, Italy). Ligated animals were placed in a chamber with a mesh metal floor covered by a plastic dome that enabled the animal to walk freely, but not to jump. The mechanical stimulus was then delivered in the mid-plantar skin of the hind paw. The cut-off was fixed at 50 g, while the increasing force rate (ramp duration) was settled at 20 sec. […]

Data set [3] has as its system Male Wistar rats. Briefly: Chronic constriction injury model, cold allodynia (acetone). The data set is classed as in vivo, rat. How it is done:
as §1, §2, §3
Cold sensitivity was measured as the number of foot withdrawal responses after application of acetone to the dorsal surface of the paw. A drop of acetone (15-20° C.) was applied to the dorsal surface of the ligated paw with a syringe connected to a thin polyethylene tube while the rats were standing on a metal mesh. A brisk foot withdrawal response, after the spread of acetone over the dorsal surface of the paw, was considered as a sign of cold allodynia. Basal response was measured on the days before treatment (2nd, 6th and 13th). […]

A further data set deals with TRPV1 (Homo sapiens, UniProt Q8NER1). The data set is described as follows: Calcium influx counterassay, agonist capsaicin. In kind it is cell-based. The conditions noted are these: 0.1 μM capsaicin = 100%, read-out: Normalized % inhibition (TRPV1). The procedure: In order to address more specifically the potential selectivity issues, a counterassay was carried out for 10, 45 and 118 against TRPV1 and TRPV4 ion channels, both involved in the nociception (Jhaveri M D, et al 2005. Eur. J. Neurosci. 22 (2): 361-70, Brierley S M et al, 2008, Gastroenterology. 2008 June; 134(7):2059-69. ). The ability of each test compound to act as an antagonist of TRPV1 was evaluated with a calcium influx assay.
Sequence of TRPV1 (Q8NER1 whole entry, species assumed): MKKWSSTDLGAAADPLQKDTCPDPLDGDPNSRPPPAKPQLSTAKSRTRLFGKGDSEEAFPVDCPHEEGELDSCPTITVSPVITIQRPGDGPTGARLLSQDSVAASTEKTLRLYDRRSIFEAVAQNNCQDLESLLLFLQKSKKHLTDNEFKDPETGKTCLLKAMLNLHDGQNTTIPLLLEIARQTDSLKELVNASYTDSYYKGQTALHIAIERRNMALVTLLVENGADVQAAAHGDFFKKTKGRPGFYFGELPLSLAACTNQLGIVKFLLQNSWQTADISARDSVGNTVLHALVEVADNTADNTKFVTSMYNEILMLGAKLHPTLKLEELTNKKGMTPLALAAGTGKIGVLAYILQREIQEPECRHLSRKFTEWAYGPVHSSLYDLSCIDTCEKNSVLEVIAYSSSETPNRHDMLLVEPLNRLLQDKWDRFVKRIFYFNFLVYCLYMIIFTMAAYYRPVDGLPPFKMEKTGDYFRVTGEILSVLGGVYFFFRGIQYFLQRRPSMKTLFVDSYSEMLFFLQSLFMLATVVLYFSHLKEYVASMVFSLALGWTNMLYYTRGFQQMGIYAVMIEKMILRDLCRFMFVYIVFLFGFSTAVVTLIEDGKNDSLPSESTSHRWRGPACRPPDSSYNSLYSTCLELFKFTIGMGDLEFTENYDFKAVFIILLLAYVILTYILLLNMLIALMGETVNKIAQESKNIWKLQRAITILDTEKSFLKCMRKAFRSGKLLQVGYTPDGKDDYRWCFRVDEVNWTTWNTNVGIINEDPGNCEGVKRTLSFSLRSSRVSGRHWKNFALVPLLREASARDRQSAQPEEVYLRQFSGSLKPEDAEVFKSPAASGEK

The next data set addresses TRPV4 (Homo sapiens, UniProt Q9HBA0). Briefly: Calcium influx counterassay, agonist GSK1016790A. In kind it is cell-based. The conditions noted are these: 10 μM GSK1016790A = 100%, read-out: Normalized % inhibition (TRPV4). The procedure: In parallel, the ability of each test compound to act as an antagonist of TRPV4 was evaluated with a calcium influx assay.
A short description of a further data set: Log D. In kind it is physicochemical.
Data set [4] deals with T1, TRPM8.
Text: Values were considered significant if the test compound mean was three or more standard deviations away from the positive control agonist mean.
[5] abbreviates: 10 mg/kg i.v., day 7 after nerve injury, 1 hour post-dose.
Where [6] appears, read: 10 mg/kg i.v., day 7, 1 hour post-dose.
[7] abbreviates: day 14 after surgery, 1 h post-dose (Compound 118: 10 mg/kg i.v.).

T1 sequence (Q7Z2W7 whole entry): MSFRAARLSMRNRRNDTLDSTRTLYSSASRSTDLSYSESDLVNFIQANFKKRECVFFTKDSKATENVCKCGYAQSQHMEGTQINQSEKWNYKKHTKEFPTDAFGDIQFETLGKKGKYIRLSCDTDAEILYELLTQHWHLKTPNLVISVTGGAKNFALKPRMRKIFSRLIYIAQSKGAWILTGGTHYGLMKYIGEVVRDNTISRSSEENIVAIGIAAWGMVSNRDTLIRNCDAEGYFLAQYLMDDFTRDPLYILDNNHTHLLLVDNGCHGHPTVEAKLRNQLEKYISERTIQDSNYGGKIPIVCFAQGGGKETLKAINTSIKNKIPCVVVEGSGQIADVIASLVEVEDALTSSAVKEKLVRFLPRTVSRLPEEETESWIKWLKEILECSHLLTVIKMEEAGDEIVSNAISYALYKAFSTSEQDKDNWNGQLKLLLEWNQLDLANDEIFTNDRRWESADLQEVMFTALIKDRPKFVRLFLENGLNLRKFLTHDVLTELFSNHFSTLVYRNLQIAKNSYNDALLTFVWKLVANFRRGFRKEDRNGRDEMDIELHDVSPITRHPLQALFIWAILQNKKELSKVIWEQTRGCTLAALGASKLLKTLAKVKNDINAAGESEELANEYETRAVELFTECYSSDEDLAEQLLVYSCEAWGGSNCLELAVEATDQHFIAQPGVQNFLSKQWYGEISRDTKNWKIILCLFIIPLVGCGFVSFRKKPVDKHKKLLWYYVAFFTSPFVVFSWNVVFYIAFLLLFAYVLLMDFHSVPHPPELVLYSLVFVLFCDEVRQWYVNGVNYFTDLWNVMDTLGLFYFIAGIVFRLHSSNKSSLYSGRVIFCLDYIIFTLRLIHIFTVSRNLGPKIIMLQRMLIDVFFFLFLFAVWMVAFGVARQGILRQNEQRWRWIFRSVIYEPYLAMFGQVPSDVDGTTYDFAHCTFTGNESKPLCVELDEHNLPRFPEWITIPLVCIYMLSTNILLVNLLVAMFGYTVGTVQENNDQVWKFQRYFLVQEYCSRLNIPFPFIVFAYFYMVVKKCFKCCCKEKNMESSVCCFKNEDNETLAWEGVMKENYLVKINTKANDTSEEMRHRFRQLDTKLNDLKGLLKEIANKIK
Sequence of TRPV4 (Q9HBA0 whole entry, species assumed): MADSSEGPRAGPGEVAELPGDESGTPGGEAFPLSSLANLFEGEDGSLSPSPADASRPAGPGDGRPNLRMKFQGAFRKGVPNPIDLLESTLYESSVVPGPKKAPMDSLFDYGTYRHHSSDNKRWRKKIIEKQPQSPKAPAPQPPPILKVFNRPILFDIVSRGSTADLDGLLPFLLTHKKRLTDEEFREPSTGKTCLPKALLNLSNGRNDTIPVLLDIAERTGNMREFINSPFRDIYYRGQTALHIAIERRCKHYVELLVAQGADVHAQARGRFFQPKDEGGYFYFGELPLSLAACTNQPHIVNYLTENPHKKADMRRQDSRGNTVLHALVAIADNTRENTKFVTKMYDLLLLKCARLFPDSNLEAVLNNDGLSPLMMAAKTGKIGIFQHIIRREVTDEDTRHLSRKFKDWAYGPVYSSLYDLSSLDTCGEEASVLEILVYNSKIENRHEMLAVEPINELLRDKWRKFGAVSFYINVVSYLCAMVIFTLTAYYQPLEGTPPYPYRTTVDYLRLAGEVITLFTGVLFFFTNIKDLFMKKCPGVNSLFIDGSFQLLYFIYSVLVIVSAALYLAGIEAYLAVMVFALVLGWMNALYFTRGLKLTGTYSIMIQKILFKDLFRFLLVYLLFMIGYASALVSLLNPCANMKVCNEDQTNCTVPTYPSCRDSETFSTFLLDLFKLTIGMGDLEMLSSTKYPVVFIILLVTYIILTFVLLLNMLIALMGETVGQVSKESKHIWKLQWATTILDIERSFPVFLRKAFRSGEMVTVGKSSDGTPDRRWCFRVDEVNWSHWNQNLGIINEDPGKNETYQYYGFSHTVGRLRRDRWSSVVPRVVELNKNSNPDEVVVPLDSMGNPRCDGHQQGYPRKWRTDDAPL

As a reminder, the IC50 is the concentration at which inhibition is half-maximal. Regarding `CCOC(=O)c1sc(-c2ccc(C)cc2)nc1NCCN` [Compound 67, ethyl 4-[(2-aminoethyl)amino]-2-(4-methylphenyl)-1,3-thiazole-5-carboxylate], at TRPM8 [1], the IC50 was less than 10 µM.

On TRPM8 [1], `O=C(O)c1sc(-c2ccc(Cl)cc2)nc1OCc1ccc(Cl)cc1` [Compound 84, sodium 4-(4-chlorobenzyloxy)-2-(4-chlorophenyl)-1,3-thiazole-5-carboxylate] registered a half-maximal inhibitory concentration (IC50) of less than 10 µM.

In turn, `Cc1ccc(-c2nc(O)c(C(=O)O)s2)cc1` [Compound 2, 4-hydroxy-2-(4-methylphenyl)-1,3-thiazole-5-carboxylic acid] showed an IC50 at TRPM8 [1] of less than 10 µM.

On to `O=C(O)c1sc(-c2ccc(Cl)cc2)nc1O` [Compound 1, 2-(4-chlorophenyl)-4-hydroxy-1,3-thiazole-5-carboxylic acid], for which the “inhibition of mechanical allodynia” value in the data set on Male Wistar rats [2] (setting [5]) was 26 % of inhibition. Besides, the “inhibition of cold allodynia” value in the data set on Male Wistar rats [3] (setting [5]) is on record as 39 % of inhibition. This molecule also returned an IC50 at TRPM8 [1] of less than 10 µM.

In the case of `CCOC(=O)c1sc(-c2ccc(Cl)cc2)nc1NCCNC` [Compound 68, ethyl 2-(4-chlorophenyl)-4-{[2-(methylamino)ethyl]amino}-1,3-thiazole-5-carboxylate], at TRPM8 [1], the half-inhibitory concentration (IC50) is less than 10 µM.

At TRPM8 [1], `CCOC(=O)c1sc(-c2ccc(Cl)cc2)nc1NCCN` [Compound 70, ethyl 4-[(2-aminoethyl)amino]-2-(4-chlorophenyl)-1,3-thiazole-5-carboxylate] registered an IC50 of less than 10 µM.

At TRPM8 [1], `Cc1ccc(-c2nc(OCc3ccc(Cl)cc3)c(C(=O)O)s2)cc1` [Compound 83, sodium 4-[(4-chlorobenzyl)oxy]-2-(4-methylphenyl)-1,3-thiazole-5-carboxylate] gave an IC50 of less than 10 µM.

`CCOC(=O)c1sc(-c2ccccc2)nc1OC(=O)c1ccc(C(F)(F)F)cc1` [Compound 36, ethyl 2-phenyl-4-{[4-(trifluoromethyl)benzoyl]oxy}-1,3-thiazole-5-carboxylate]: the IC50 at TRPM8 [1] is less than 10 µM.

At TRPM8 [1], `CCOC(=O)c1sc(-c2ccccc2)nc1OCc1ccc(Cl)cc1` [Compound 27, ethyl 4-[(4-chlorobenzyl)oxy]-2-phenyl-1,3-thiazole-5-carboxylate] displayed an IC50 of less than 10 µM.

Usually inhibition stands for the drop in the measured response relative to a control, in per cent. In the case of `CCn1nnc(-c2sc(-c3cccc(F)c3)nc2O)n1` [Compound 118, 2-(3-fluorophenyl)-5-(2-ethyl-2H-tetrazol-5-yl)-1,3-thiazol-4-ol], the “mechanical allodynia” value in the data set with Male Wistar rats [2] (setting [6]) was “significantly attenuated”. The “inhibition of mechanical allodynia” value with Male Wistar rats [2] (setting [7]) was “no inhibition”. Besides, the “cold allodynia” value in the data set with Male Wistar rats [3] (setting [6]) is listed as “significantly attenuated”. Further, in the data set on Male Wistar rats [3] (setting [7]), the “inhibition of cold allodynia” value is reported as 52 % of inhibition. The inhibition at 1 µM on TRPV1 (Test Conc. 1 uM) came out at 1.2%; at TRPV4 (Test Conc. 1 uM) it was 2%. In addition, the inhibition at 10 µM at TRPV1 (Test Conc. 10 uM) worked out at 2.3%; on TRPV4 (Test Conc. 10 uM), 8.9%. Moreover, the “log D values” in the data set “Log D” is “low”. The “antagonist activity in calcium influx assay” value on TRPM8 [4] was “confirmed the antagonist activity”.

With `CCOC(=O)c1sc(-c2ccc(Cl)cc2)nc1OCCN` [Compound 41, ethyl 4-(2-aminoethoxy)-2-(4-chlorophenyl)-1,3-thiazole-5-carboxylate], at TRPM8 [1], the IC50 is less than 10 µM.
